Test results: PubChem BioAssay (NCI)
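How tested: cells in 96-well plates exposed to compound for 48 hours at five concentrations. The concentration for full growth arrest is given as TGI.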

Columns and labels:
Assay in all cases: DTP human tumour cell line panel, 48 h
[1] = test system: 786-0 renal
[2] = test system: A498 renal
[3] = test system: A549 NSCLC
[4] = test system: ACHN renal
[5] = test system: BT-549 breast
[6] = test system: CAKI-1 renal
[7] = test system: CCRF-CEM leukemia
[8] = test system: COLO 205 colon
[9] = test system: DU-145 prostate
[10] = test system: EKVX NSCLC
[11] = test system: HCC-2998 colon
[12] = test system: HCT-116 colon
[13] = test system: HCT-15 colon
[14] = test system: HL-60(TB) leukemia
[15] = test system: HOP-62 NSCLC
[16] = test system: HOP-92 NSCLC
[17] = test system: HS 578T breast
[18] = test system: HT29 colon
[19] = test system: IGROV1 ovarian
[20] = test system: K-562 leukemia
[21] = test system: KM12 colon
[22] = test system: M14 melanoma
[23] = test system: MALME-3M melanoma
[24] = test system: MCF7 breast
[25] = test system: MDA-MB-435
[26] = test system: MDA-N
[27] = test system: MOLT-4 leukemia
[28] = test system: NCI-H226 lung
[29] = test system: NCI-H23 lung
[30] = test system: NCI-H460 lung
[31] = test system: NCI-H522 lung
[32] = test system: NCI/ADR-RES ovarian
[33] = test system: OVCAR-3 ovarian
[34] = test system: OVCAR-4 ovarian
[35] = test system: OVCAR-5 ovarian
[36] = test system: OVCAR-8 ovarian
[37] = test system: PC-3 prostate
[38] = test system: RPMI-8226 leukemia
[39] = test system: RXF 393 renal
[40] = test system: SF-268 CNS
[41] = test system: SF-295 CNS
[42] = test system: SF-539 CNS
[43] = test system: SK-MEL-2 melanoma
[44] = test system: SK-MEL-28 melanoma
[45] = test system: SK-MEL-5 melanoma
[46] = test system: SK-OV-3 ovarian
[47] = test system: SN12C renal
[48] = test system: SNB-19 CNS
[49] = test system: SNB-75 CNS
[50] = test system: SR leukemia
[51] = test system: SW-620 colon
[52] = test system: T-47D breast
[53] = test system: TK-10 renal
[54] = test system: U251 CNS
[55] = test system: UACC-257 melanoma
[56] = test system: UACC-62 melanoma
[57] = test system: UO-31 renal

Measured: TGI

Cc1cn(C2CC(N)C(CN)O2)c(=O)[nH]c1=O (configuration not stated)
> 100 µM: all assays above
